The subject of data set [1] is YPEN-1 cells (rat prostatic endothelial cell line). In words: In vitro ROS scavenging activity assay (DCFDA). Format: cell-based. Conditions: cells pre-treated with 50 μM SIN-1 for 1 hour; DCFDA fluorescence; positive control trolox; FIGS. 1 and 2. How it is done:
YPEN-1 cells (rat prostatic endothelial cell line) was obtained from American type culture collection (ATCC, Manassas, Va., USA), and the cells were cultured by using a dulbecco's modified eagle medium (DMEM, Nissui, Tokyo, Japan) containing 2 mM L-glutamine, […], 2.5 mg/L amphotericin B, and 5% inactivated fetal bovine serum (FBS). Also, the cells were maintained at a temperature of 37° C. in a humid atmosphere-like condition containing 5% CO2 and 95% air. […] The cells were sub-cultured in 100 mm plastic flask (Corning Co., New York, USA) every two days to maintain the cell line.
2′,7′-dichlorodihydrofluorescein diacetate (DCFDA) assay method according to a conventionally known method (Chem Res Toxicol. 5: 227-231, 1992) was used. In detail, 12.5 mM DCFDA dissolved in 99.9% ethanol and 600 U/ml esterase dissolved in tertiary distilled water were stored as a stock solution at a temperature of −20° C., and a 2′,7′-dichlorodihydrofluorescein (DCFH) solution prepared by mixing 10 mM DCFDA and 6 U/ml esterase was cultured at a temperature of 22° C. for 20 minutes, and then, refrigerated in a dark place before use. […] Vascular endothelial cells that were pre-treated with 50 μM 3-morpholinosydnonimine hydrochloride (SIN-1) for 1 hour were used as a reactive oxygen generation source.

Data set [2] relates to Mushroom-derived tyrosinase. The data set can be described thus: Tyrosinase inhibitory effect. The following applies: 1 mM L-tyrosin, pH 6.5, 25° C., 30 minutes, OD492; positive control kojic acid; FIGS. 3 and 4. It counts as biochemical. The procedure:
Mushroom-derived tyrosinase was sued as an enzyme source in the present experiment. Tyrosinase activities were assayed according to a slightly-modified conventionally known method (Life Sci., 1999, 65, 241-246). In detail, 20 μl of a mushroom-derived tyrosinase (1000 units) aqueous solution was added to 96-well microplate (Nunc, Denmark) to prepare 200 μl of the total volume of assay mixture containing 1 mM L-tyrosin solution and 50 mM phosphate buffer solution (pH 6.5). The assay mixture was cultured at a temperature of 25° C. for 30 minutes.

The target in a further data set is T1, PPAR alpha-LBD (Homo sapiens, UniProt Q07869).
T1 sequence (Q07869 239-466 limits assumed): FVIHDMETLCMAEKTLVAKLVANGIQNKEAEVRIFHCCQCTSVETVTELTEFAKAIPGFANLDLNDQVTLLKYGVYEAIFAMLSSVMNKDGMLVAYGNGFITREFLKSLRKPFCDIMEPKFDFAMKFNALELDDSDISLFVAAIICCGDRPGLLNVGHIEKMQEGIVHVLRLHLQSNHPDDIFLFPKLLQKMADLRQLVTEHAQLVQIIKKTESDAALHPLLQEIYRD
In words: PPAR assay, PPARα. The following applies: for PPARα activation (competitive activation rate), compared with fenofibrate: sample final concentration 100 μM, positive control fenofibrate, FIGS. 5 and 6; for simultaneous activation of PPARα and PPARγ: summary of the PPARα and PPARγ assays, sample 100 μM.

The next data set has as its target T2, PPAR gamma-LBD (Homo sapiens, UniProt P37231).
T2 sequence (P37231 238-503 limits assumed): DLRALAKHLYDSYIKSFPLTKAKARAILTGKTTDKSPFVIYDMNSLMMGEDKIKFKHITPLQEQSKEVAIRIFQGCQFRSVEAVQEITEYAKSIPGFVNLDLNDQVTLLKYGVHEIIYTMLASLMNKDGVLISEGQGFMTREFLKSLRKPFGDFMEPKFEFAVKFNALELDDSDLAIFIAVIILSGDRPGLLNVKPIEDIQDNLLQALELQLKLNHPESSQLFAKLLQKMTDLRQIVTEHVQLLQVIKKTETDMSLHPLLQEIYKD
In words: PPAR assay, PPARγ. It counts as binding. The following applies: sample final concentration 100 μM; positive control rosiglitazone; FIGS. 7 and 8.

Consider `O=C(O)[C@@H]1CSC(c2ccc(O)c(O)c2)N1` (mixture of isomers) [Compound 2, (2R/S,4R)-2-(3,4-dihydroxyphenyl)thiazolidine-4-carboxylic acid], for which the melting point was 195.5 to 196.8 °C. Besides, the “scavenging effects on ROS generated by vascular endothelial cells, compared with trolox” value (shortened to “scavenging effects … compared with trolox”) in data set [1] was “as high scavenging effects on ROS generated by vascular endothelial cells as trolox”.
`O=C(O)[C@@H]1CSC(c2ccc(O)cc2O)N1` (mixture of isomers) [Compound 3, (2R/S,4R)-2-(2,4-dihydroxyphenyl)thiazolidine-4-carboxylic acid]: the “tyrosinase inhibitory activities, compared with kojic acid” value in data set [2] is “better tyrosinase inhibitory activities than a kojic acid”.
Take `COc1ccc(C2N[C@H](C(=O)O)CS2)c(OC)c1` (mixture of isomers) [Compound 9, (2R/S,4R)-2-(2,4-dimethoxyphenyl)thiazolidine-4-carboxylic acid]: the melting point lay in the range of 137.7 to 139.2 °C. The “tyrosinase inhibitory activities, compared with kojic acid” value in data set [2] is reported as “better tyrosinase inhibitory activities than a kojic acid”.
With `COC(=O)[C@@H]1CSC(c2ccc(O)c(O)c2)N1` (mixture of isomers) [Compound 104, (2R/S,4R)-methyl 2-(3,4-dihydroxyphenyl)thiazolidine-4-carboxylate], the melting point was in the range of 116 to 118 °C. Further, the “scavenging effects … compared with trolox” value in data set [1] is listed as “as high scavenging effects on ROS generated by vascular endothelial cells as trolox”.
On to `Oc1ccc(-c2nc3ccccc3s2)cc1` [Compound 13, 4-(benzo[d]thiazol-2-yl)phenol], for which the “tyrosinase inhibitory activities, compared with kojic acid” value in data set [2] is “better tyrosinase inhibitory activities than a kojic acid”. At PPAR alpha-LBD, the “PPARα activation (competitive activation rate), compared with fenofibrate” value (from here on “PPARα activation … compared with fenofibrate”) is reported as “very excellent PPARα activation agent compared to fenofibrate”; the “simultaneous activation of PPARα and PPARγ” value (shortened to “simultaneous activation”) was “simultaneously activates PPARα and PPARγ”. On PPAR gamma-LBD, the “PPARγ activation (competitive activation rate), compared with rosiglitazone” value (shortened to “PPARγ activation … compared with rosiglitazone”) is listed as “very excellent PPARγ activation agent compared to rosiglitazone”.
Consider `Oc1ccc(-c2nc3ccccc3s2)c(O)c1` [Compound 15, 4-(benzo[d]thiazol-2-yl)benzene-1,3-diol], for which, in data set [2], the “tyrosinase inhibitory activities, compared with kojic acid” value is recorded as “better tyrosinase inhibitory activities than a kojic acid”.
As to `Oc1ccc(-c2nc3cc(C(F)(F)F)ccc3s2)cc1O` [Compound 29, 4-(5-(trifluoromethyl)benzo[d]thiazol-2-yl)benzene-1,2-diol], the melting point was in the range of 267.3 to 269.4 °C. Moreover, in data set [1], the “scavenging effects … compared with trolox” value is “as high scavenging effects on ROS generated by vascular endothelial cells as trolox”.
For the compound `Oc1ccc(-c2nc3cc(C(F)(F)F)ccc3s2)c(O)c1` [Compound 30, 4-(5-(trifluoromethyl)benzo[d]thiazol-2-yl)benzene-1,3-diol], the melting point lay in the range of 236.2 to 238.2 °C. The “tyrosinase inhibitory activities, compared with kojic acid” value in data set [2] is “better tyrosinase inhibitory activities than a kojic acid”.
In the case of `Oc1ccc(-c2nc3ccccc3[nH]2)cc1O` [Compound 44, 4-(1H-benzo[d]imidazol-2-yl)benzene-1,2-diol], the melting point lay in the range of 268.5 to 269.8 °C. On PPAR alpha-LBD, the “PPARα activation … compared with fenofibrate” value is recorded as “very excellent PPARα activation agent compared to fenofibrate”; the “simultaneous activation” value was “simultaneously activates PPARα and PPARγ”. In addition, the “scavenging effects … compared with trolox” value in data set [1] is “as high scavenging effects on ROS generated by vascular endothelial cells as trolox”. The “PPARγ activation … compared with rosiglitazone” value on PPAR gamma-LBD is on record as “very excellent PPARγ activation agent compared to rosiglitazone”.
Consider `Oc1ccc(-c2nc3ccccc3[nH]2)c(O)c1` [Compound 45, 4-(1H-benzo[d]imidazol-2-yl)benzene-1,3-diol], for which the “tyrosinase inhibitory activities, compared with kojic acid” value in data set [2] is on record as “better tyrosinase inhibitory activities than a kojic acid”. Further, at PPAR alpha-LBD, the “PPARα activation … compared with fenofibrate” value is “very excellent PPARα activation agent compared to fenofibrate”; the “simultaneous activation” value is “simultaneously activates PPARα and PPARγ”. In addition, the “PPARγ activation … compared with rosiglitazone” value on PPAR gamma-LBD is given as “very excellent PPARγ activation agent compared to rosiglitazone”.
For `COc1cc(-c2nc3ccccc3[nH]2)cc(OC)c1O` [Compound 55, 4-(1H-benzo[d]imidazol-2-yl)-2,6-dimethoxyphenol], the “tyrosinase inhibitory activities, compared with kojic acid” value in data set [2] was “better tyrosinase inhibitory activities than a kojic acid”. At PPAR alpha-LBD, the “PPARα activation … compared with fenofibrate” value is “very excellent PPARα activation agent compared to fenofibrate”; the “simultaneous activation” value is “simultaneously activates PPARα and PPARγ”. Also, on PPAR gamma-LBD, the “PPARγ activation … compared with rosiglitazone” value is reported as “very excellent PPARγ activation agent compared to rosiglitazone”.
Take `Oc1ccc(C2NCCS2)cc1O` (stereo not shown) [Compound 72, 4-(Thiazolidin-2-yl)benzene-1,2-diol]: in data set [1], the “scavenging effects … compared with trolox” value is “as high scavenging effects on ROS generated by vascular endothelial cells as trolox”.
As for `COc1cc(C2NCCS2)cc(OC)c1O` (stereo not shown) [Compound 80, 2,6-dimethoxy-4-(thiazolidin-2-yl)phenol], the “scavenging effects … compared with trolox” value in data set [1] is reported as “as high scavenging effects on ROS generated by vascular endothelial cells as trolox”.
Compound `Oc1ccc(-c2nc3cc(Cl)ccc3s2)cc1` [Compound 82, 4-(5-chlorobenzo[d]thiazol-2-yl)phenol] had a melting point of 259.3 to 263.1 °C. In data set [2], the “tyrosinase inhibitory activities, compared with kojic acid” value is given as “better tyrosinase inhibitory activities than a kojic acid”.
Take `CC(C)(C)[Si](C)(C)Oc1ccc2c(-c3ccccc3)cc(=O)oc2c1O[Si](C)(C)C(C)(C)C` [Compound 100, 7,8-bis(tert-butyldimethylsilyloxy)-4-phenyl-2H-chromen-2-one]: the “scavenging effects … compared with trolox” value in data set [1] was “as high scavenging effects on ROS generated by vascular endothelial cells as trolox”.
Consider `O=C(O)c1csc(-c2ccc(O)cc2O)n1` [Compound 101, 2-(2,4-Dihydroxyphenyl)thiazole-4-carboxylic acid], for which the “tyrosinase inhibitory activities, compared with kojic acid” value in data set [2] is reported as “better tyrosinase inhibitory activities than a kojic acid”.
Take `O=C(O)[C@@H]1CSC(c2ccc(O)c(O)c2)=N1` [Compound 102, (4R)-2-(3,4-dihydroxyphenyl)-4,5-dihydrothiazole-4-carboxylic acid]: the melting point fell in the range of 178 to 179 °C. Further, the “scavenging effects … compared with trolox” value in data set [1] was “as high scavenging effects on ROS generated by vascular endothelial cells as trolox”.
The compound `COC(=O)c1csc(-c2ccc(OC(C)=O)c(OC(C)=O)c2)n1` [Compound 103, 4-(4-(Methoxycarbonyl)thiazol-2-yl)-1,2-phenylene diacetate] returned a melting point of 137 to 138 °C. Further, the “scavenging effects … compared with trolox” value in data set [1] is “as high scavenging effects on ROS generated by vascular endothelial cells as trolox”.
With `Oc1ccc(C2Nc3cc(C(F)(F)F)ccc3S2)cc1Br` (stereo not shown) [Compound 119, 2-bromo-4-(5-(trifluoromethyl)-2,3-dihydrobenzo[d]thiazol-2-yl)phenol], on PPAR alpha-LBD, the “PPARα activation … compared with fenofibrate” value is given as “very excellent PPARα activation agent compared to fenofibrate”; the “simultaneous activation” value is “simultaneously activates PPARα and PPARγ”. Besides, the “scavenging effects … compared with trolox” value in data set [1] is reported as “as high scavenging effects on ROS generated by vascular endothelial cells as trolox”. At PPAR gamma-LBD, the “PPARγ activation … compared with rosiglitazone” value is “very excellent PPARγ activation agent compared to rosiglitazone”.

In general, melting point refers to the temperature of the solid-liquid transition.

For the origin of these results see US8889881B2, “Compound having skin-whitening, anti-oxidizing and PPAR activities and medical use therefor” (Pusan National University Industry —University Cooperation …, priority 2011, dated 2014).
